Data as given in patent US12502338B2, “Dental glass ionomer cement” (GC Corporation, priority 2020, dated 2025).

experiment: Water solubility / water insolubility by visual observation; assay type: physicochemical; conditions: 0.4 g sample in 4 g distilled water, 20° C., 30 minutes
Procedure: As used herein and in the claims, a water-soluble compound means a compound having a solubility in water of 10 g/100 g H2O or more at 20° C.
4 g of distilled water and 0.4 g of a sample were sufficiently stirred at 20° C., allowed to stand for 30 minutes, and then visually observed. When white turbidity and biphasic separation were not observed, it was judged to be water soluble. When white turbidity or biphasic separation was observed, it was judged to be water insoluble.

Molecule | water solubility / water insolubility
C=C(C)C(=O)OCCOC(=O)NCCC(C)CC(C)(C)CNC(=O)OCCOC(=O)C(=C)C (centres unmarked) [UDMA, di-2-methacryloxyethyl-2,2,4-triethylhexamethylene dicarbamate] | WATER-SOLUBLE
C=CC(=O)NCCO [HEAA, hydroxyethyl acrylamide] | WATER-SOLUBLE
C=C(C)C(=O)OCCO [HEMA, hydroxyethyl methacrylate] | WATER-SOLUBLE
isocyanuric acid EO-modified trimethacrylate [UA-7100] | WATER-SOLUBLE
C=C(C)C(=O)OCCOCCOCCOC(=O)C(=C)C [TEGDMA, triethylene glycol dimethacrylate] | WATER-SOLUBLE
